Laboratory results: patent US4670038A, “Cyclotriphosphazatriene-derivatives as soil urease activity inhibitors” (Tennessee Valley Authority, priority 1986, dated 1987)
“Also recorded” adds a separate entry of the source. Where two headings read alike, the source gives them in different places.

Key:
[1] = system: soil urease; assay: Urea hydrolysis in bands of urea plus inhibitor in Hastings silt loam soil (banded system); type: biochemical; conditions: for Unhydrolyzed Urea, % Banded 3-Day / Unhydrolyzed Urea, % Banded 6-Day: Table VI, 41 mg inhibitor/band; for Unhydrolyzed Urea, % 3 Days / Unhydrolyzed Urea, % Banded 3-Day: 3 days; for Unhydrolyzed Urea, % 6 Days / Unhydrolyzed Urea, % Banded 6-Day: 6 days
[2] = system: soil urease; assay: Soil urease inhibition in Crowley silt loam soil, extended time evaluation system (urea added at selected intervals); type: biochemical; conditions: for Soil Urease Inhibition, 0 Days / Soil Urease Inhibition, 3 Days / Soil Urease Inhibition, 7 Days / Soil Urease Inhibition, 14 Days / Soil Urease Inhibition, 21 Days: 7 micromoles compound per 120 g Crowley silt loam, reincubated 16 hours; for Soil Urease Inhibition, 0 Days: urea added after 0 days; for Soil Urease Inhibition, 3 Days: urea added after 3 days; for Soil Urease Inhibition, 7 Days: urea added after 7 days; for Soil Urease Inhibition, 14 Days: urea added after 14 days; for Soil Urease Inhibition, 21 Days: urea added after 21 days
[3] = system: soil urease; assay: Urea remaining unhydrolyzed in Hastings silt loam soil, well-mixed system; type: biochemical; conditions: for Soil urease inhibitory properties in words, well-mixed system: 1-, 3- and 6-day tests, compared with phenyl phosphorodiamidate; for Unhydrolyzed Urea, % Well-Mixed 1-Day / Unhydrolyzed Urea, % Well-Mixed 3-Day / Unhydrolyzed Urea, % Well-Mixed 6-Day: Table V, 41 mg inhibitor, 410 mg urea, 100 g soil, three replications, 25° C.; for Unhydrolyzed Urea, % Well-Mixed 3-Day: 3 days; for Unhydrolyzed Urea, % Well-Mixed 6-Day: 6 days; for Time until percentage urease inhibition reaches 0% (FIG. 1): FIG. 1, plotted and extrapolated from data of Table V, conventional test
[4] = soil, 168 h; cited from earlier work
[5] = cited from earlier work
[6] = Table II, equimolar basis, 0.25 millimoles inhibitor/band, 410 mg urea/band, three replications, Hastings silt loam, 25° C.
[7] = Table IV, inhibitor 10 percent of urea (wt/wt), 41 mg/band, two replications, Hastings silt loam
[8] = Hastings silt loam, banded system, 3-day and 6-day tests
[9] = 410 mg urea/band, three replications, Hastings silt loam, 25° C.
[10] = Table III, inhibitor 10 percent of urea (wt/wt), 41 mg/band, four replications, Hastings silt loam, 25° C.

| SMILES | Unhydrolyzed Urea, % 3 Days [1, 6] [%] | Unhydrolyzed Urea, % 6 Days [1, 6] [%] | Unhydrolyzed Urea, % 3 Days [1, 7] [%] | Unhydrolyzed Urea, % 6 Days [1, 7] [%] | Soil urease inhibition in words, banded soil tests [1, 8] | Unhydrolyzed Urea, % Banded 3-Day [1, 9] [%] | Unhydrolyzed Urea, % Banded 6-Day [1, 9] [%] | Soil Urease Inhibition, 0 Days ([2]; 30° C.) [%] | Soil Urease Inhibition, 3 Days ([2]; 30° C.) [%] | Soil Urease Inhibition, 7 Days ([2]; 30° C.) [%] | Soil Urease Inhibition, 14 Days ([2]; 30° C.) [%] | Soil Urease Inhibition, 21 Days ([2]; 30° C.) [%] | Soil urease inhibitory properties in words, well-mixed system [3] | Unhydrolyzed Urea, % Well-Mixed 1-Day [3] [%] | Unhydrolyzed Urea, % Well-Mixed 3-Day [3] [%] | Unhydrolyzed Urea, % Well-Mixed 6-Day [3] [%] | other results |
| --- | --- | --- | --- | --- | --- | --- | --- | --- | --- | --- | --- | --- | --- | --- | --- | --- | --- |
| CC(=O)NO [CH3 C(NOH)(OH), Acetohydroxamic acid, reference compound] | 26.2 | 6.7 |  |  |  |  |  |  |  |  |  |  |  |  |  |  |  |
| NC(=O)NO [CO(NH2)(NHOH), Hydroxyurea, reference compound] | 20.3 | 0.2 |  |  |  |  |  |  |  |  |  |  |  |  |  |  |  |
| ClP1(Oc2ccccc2)=NP(Cl)(Oc2ccccc2)=NP(Cl)(Oc2ccccc2)=N1 (centres unmarked) [P3 N3 (Cl)3 (OC6 H5)3, 2,4,6-triphenoxy-2,4,6-trichlorocyclotriphosphazatriene] |  |  |  |  |  |  |  |  |  |  |  |  |  |  |  |  | Soil urease inhibition in words, banded soil tests [1]: not effective urease inhibitors |
| CNP1(NC)=NP(N)(N)=NP(NC)(NC)=N1 [P3 N3 (NH2)2 (NHCH3)4, 2,2,4,4,-tetra(monomethylamino)-6,6-diaminocyclotriphosphazatriene] |  |  | 0.5 | 0.0 |  |  |  |  |  |  |  |  |  |  |  |  |  |
| CN(C)P1(N(C)C)=NP(N)(N)=NP(N(C)C)(N(C)C)=N1 [P3 N3 (NH2)2 [N(CH3)2]4, 2,2,4,4,-tetra(dimethylamino)-6,6-diaminocyclotriphosphazatriene] |  |  |  |  | do not exhibit urease inhibition |  |  |  |  |  |  |  |  |  |  |  |  |
| NP1(Oc2ccccc2)=NP(N)(Oc2ccccc2)=NP(N)(Oc2ccccc2)=N1 (centres unmarked) [P3 N3 (NH2)3 (OC6 H5)3, 2,4,6-triphenoxy-2,4,6-triaminocyclotriphosphazatriene] |  |  |  |  |  | 21 | 0 | 22 | 79 | 74 | 84 | 82 | less than that of phenyl phosphorodiamidate | 82 | 37 | 0 | Urease inhibition sustained during the period from 7 to 21 days (FIG. 2) ([2]; Crowley silt loam, 30° C., period from 7 to 21 days): greater than 80% |
| NP1(N)=NP(N)(Oc2ccccc2)=NP(N)(Oc2ccccc2)=N1 (centres unmarked) [P3 N3 (NH2)4 (OC6 H5)2, 2,4-diphenoxy-2,4,6,6-tetraaminocyclotriphosphazatriene] |  |  |  |  | inhibit soil urease during the 3-day and 6-day tests | 60 | 4 | 75 | 94 | 71 | 69 | 65 | comparable to phenyl phosphorodiamidate | 94 | 74 | 36 | Time until percentage urease inhibition reaches 0% (FIG. 1) [3]: about 10 days |
| NP1(N)=NP(N)(N)=NP(N)(Oc2ccccc2)=N1 (centres unmarked) [P3 N3 (NH2)5 (OC6 H5), 2-phenoxy-2,4,4,6,6-pentaaminocyclotriphosphazatriene] |  |  |  |  | inhibit soil urease during the 3-day and 6-day tests | 61 | 7 | 95 | 75 | 49 | 42 | 44 | comparable to phenyl phosphorodiamidate | 96 | 82 | 44 | Time until percentage urease inhibition reaches 0% (FIG. 1) [3]: about 10 days |
| NP1(N)=NP(N)(N)=NP(N)(N)=N1 [P3 N3 (NH2)6, 2,2,4,4,6,6-hexaaminocyclotriphosphazatriene] | 48.1 | 16.8 | 53.8 | 9.5 | comparable to PPDA as an inhibitor of soil urease activity; also recorded: inhibit soil urease during the 3-day and 6-day tests | 64 | 8 | 46 | 23 | 20 | 4 | 4 | less than that of phenyl phosphorodiamidate | 86 | 57 | 9 | Unhydrolyzed Urea, % 3 Days [1, 10]: 49.7%; Unhydrolyzed Urea, % 6 Days [1, 10]: 9.5%; Percent hydrolyzed in 7 days [4]: 6-13%; Time of hydrolysis ([5]; pH 8, 15° C.): about 300 hours; Time of hydrolysis ([5]; pH 8, 30° C.): ~100 h; Soil Urease Inhibition, 21 Days ([2]; 30° C., listed as hexaaminocyclotriphosphazatriene): about 4%; Urease inhibition compared with reference standard PPDA, in words (FIG. 2) ([2]; time independent modified soil evaluation procedure, 21-day test period): as good or better than PPDA for the time period from 14 to 21 days |
| CNP1(NC)=NP(NC)(NC)=NP(NC)(NC)=N1 [P3 N3 (NHCH3)6, 2,2,4,4,6,6-hexa(monomethylamino)cyclotriphosphazatriene] |  |  | 0.0 | 0.0 | do not exhibit urease inhibition |  |  |  |  |  |  |  |  |  |  |  |  |
| CN(C)P1(N(C)C)=NP(N(C)C)(N(C)C)=NP(N(C)C)(N(C)C)=N1 [P3 N3 [N(CH3)2]6, 2,2,4,4,6,6-hexa(dimethylamino)cyclotriphosphazatriene] |  |  | 0.0 | 0.0 | do not exhibit urease inhibition |  |  |  |  |  |  |  |  |  |  |  |  |
| NP(N)(N)=O [PO(NH2)3, Phosphoryltriamide, reference compound] | 43.4 | 1.8 | 54.2 | 2.6 |  |  |  | 29 | 4 | 12 | 0 | 0 |  |  |  |  | Unhydrolyzed Urea, % 3 Days [1, 10]: 48.1%; Unhydrolyzed Urea, % 6 Days [1, 10]: 1.1% |
